pKi: −log10 of the molar value.
What was measured:
α1 receptors = assay: Affinity for α1 receptors of rats, competition with [^3 H]-prazosin; assay type: binding; settings: frontal cortex of rat, 25° C.
Protocol: The radioactivity retained on the filters is determined by liquid scintillation counting. The binding isotherms are analysed by non-linear regression using `PRISM` software (GraphPad Software Inc., S. Diego, USA) to determine IC50 values.

[1] = target: T1, post-synaptic 5-HT1A receptors (Rattus norvegicus, UniProt P19327); assay: Body temperature test in rats; assay type: in vivo
T1 construct: Body Temperature Test in Rats (post-synaptic 5-HT1A receptors); from tissue; host or cells: living rat (whole animal)
T1 sequence (P19327 1-422): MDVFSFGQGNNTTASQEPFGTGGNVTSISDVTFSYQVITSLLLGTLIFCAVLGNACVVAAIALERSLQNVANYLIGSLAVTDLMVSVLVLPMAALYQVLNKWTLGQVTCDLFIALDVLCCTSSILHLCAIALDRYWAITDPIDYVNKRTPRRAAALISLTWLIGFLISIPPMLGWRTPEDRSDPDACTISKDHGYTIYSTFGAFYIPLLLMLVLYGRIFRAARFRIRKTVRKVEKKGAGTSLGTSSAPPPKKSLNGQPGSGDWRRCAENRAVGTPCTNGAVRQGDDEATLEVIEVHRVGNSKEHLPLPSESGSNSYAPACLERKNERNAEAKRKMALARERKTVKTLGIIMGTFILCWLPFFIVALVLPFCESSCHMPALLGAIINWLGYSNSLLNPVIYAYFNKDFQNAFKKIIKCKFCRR
Source text: 2. Body Temperature Test in Rats (post-synaptic 5-HT1A receptors)
That effect is reversed by 5-HT1A antagonists,as has been shown by M. J. Millan (J. Pharmacol. Exp. Ther., 1993, 264, 1346-1376). According to the protocol described by that author, compounds of the invention which when administered on their own bring about a decrease in body temperature will be identified as post-synaptic 5-HT1A serotoninergic agonists. On the other hand, compounds of the invention that reverse the hypothermia induced by the prototypical 5-HT1A agonist 8-OH-DPAT will be identified as post-synaptic 5-HT1A antagonists.

[2] = Ultrasonic vocalisation test in rats; assay type: in vivo, Male Wistar rats; settings: for duration of the ultrasonic vocalisations: mean ± s.e.m.
Source text: 3. Ultrasonic Vocalisation Test in Rats
When a rat is placed in an environment previously associated with an unpleasant experience (electric shocks to the paws), its anxiety is shown by the emission of inaudible cries (or ultrasonic vocalisations).
Standard cages (Coulbourn Instruments), placed in sound-absorbing ventilated boxes, are fitted with a floor composed of electrifiable metal bars (shock generator and scrambler Med Associates Inc) and with a microphone located in the centre of the ceiling. The ultrasonic noises are converted into an audible range (bat-detector Buitenbedrijf). The signals modified in that manner are filtered and then processed (RTS software, Engineering Design). The spectrograms obtained are recorded on DAT tapes.
Male Wistar rats weighing 180-200 g on their arrival are placed in cages of four with free access to water and food from five days before the start of the study until the end of the study. The procedure employed is divided into three successive stages separated by 24 hours, called training, selection and test. During the training period, the animals are placed individually into cages where they receive six electric shocks (0.8 mA, 8 s) distributed randomly over a period of seven minutes. Selection comprises placing each animal in a cage for two minutes where it receives a single shock and putting it back in the cage thirty minutes later to record the ultrasonic vocalisations for a period of ten minutes; those animals in which the duration of the vocalisations is less than 90 seconds are excluded from the remainder of the experiment. The test phase proceeds in a similar manner to the selection stage, except that the compounds or the carrier are administered at the end of the two-minute period.

[3] = target: T2, pre-synaptic 5-HT1A receptors (Rattus norvegicus, UniProt P19327); assay: In vivo recording of unitary extracellular electrical activity in the dorsal nucleus of the raphe in rats
T2 construct: in the Dorsal Nucleus of the Raphe in Rats (pre-synaptic 5-HT1A receptors); from tissue; host or cells: living anaesthetised rat, serotoninergic neurons of the dorsal nucleus of the raphe
T2 sequence (P19327 1-422): T1 sequence (P19327 1-422)
Protocol: 1. "In Vivo" Recording of Unitary Extracellular Electrical Activity in the Dorsal Nucleus of the Raphe in Rats (pre-synaptic 5-HT1A receptors)
The administration of a 5-HT1A serotoninergic agonist decreases the discharge frequency of neurons in a dose-dependant manner. That effect is reversed by the selective 5-HT1A antagonist, WAY 100,635.
The rats are anaesthetised with chloral hydrate (400 mg/kg, i.p.) and placed in a stereotaxis apparatus (Unimecanique, France) after catheterisation of the femoral vein. The level of anaesthesia is maintained by i.p. administration of chloral hydrate every hour; the rectal temperature is maintained at 37±1° C. by means of a thermostatically controlled heated cover. A tungsten microelectrode (10 M.OMEGA., 1 μM) is inserted using an electronic microinsertion device (Unimecanique, France) into the dorsal nucleus of the raphe (AP: -7.8/bregma; L: 0.0; H: 5.0-6.5/dura; Paxinos and Watson Atlas, 1986). The potentials of the serotoninergic cells are characterised by their morphology (positive/negative biphase potentials, of a duration of less than 2.5 msec) and their slow and regular discharge rhythm of from 0.5 to 2.5 Hz. A single cell per animal is recorded.
After a period of ≥5 min (basal activity) and a first injection of carrier (distilled water to which a few drops of dilute lactic acid have been added, pH adjusted to 5 with 1N NaOH), the compound of the invention is administered intravenously in cumulatively increasing doses at intervals of 5 minutes.
Acquisition of the data is effected by the software Spike2 (Cambridge Electronic Design, England). The discharge frequency is measured over one minute at the maximum variation between each injection and is expressed as a percentage variation in relation to the basal activity (average of the 5 minutes preceding the first treatment) defined as 100%. The ID50 is calculated using a simple linear regression method with repeated measurements.

human 5-HT1A receptor = target: T3, human 5-HT1A receptor (Homo sapiens, UniProt P08908); assay: Affinity for human h5-HT1A receptors, competition with [^3 H]-8-OH-DPAT; assay type: binding
T3 construct: expressed in transfected cells; host or cells: CHO cells (membranes)
T3 sequence (P08908 1-422): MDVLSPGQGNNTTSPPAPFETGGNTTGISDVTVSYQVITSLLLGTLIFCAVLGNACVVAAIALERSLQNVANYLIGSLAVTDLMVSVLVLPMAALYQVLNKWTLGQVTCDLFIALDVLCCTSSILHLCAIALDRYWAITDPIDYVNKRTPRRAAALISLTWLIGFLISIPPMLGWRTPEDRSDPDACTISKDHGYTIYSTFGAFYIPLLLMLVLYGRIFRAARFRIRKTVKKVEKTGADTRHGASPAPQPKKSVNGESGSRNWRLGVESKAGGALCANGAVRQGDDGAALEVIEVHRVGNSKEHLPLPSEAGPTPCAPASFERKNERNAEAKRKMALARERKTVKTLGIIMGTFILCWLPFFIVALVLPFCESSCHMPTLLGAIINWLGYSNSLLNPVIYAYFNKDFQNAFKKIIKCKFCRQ
Protocol: The radioactivity retained on the filters is determined by liquid scintillation counting.

[4] = target: T1, post-synaptic 5-HT1A receptors; settings: M. J. Millan, 1993; cited from earlier work

SMILES | pKi (α1 receptors) | character at post-synaptic 5-HT1A receptors ([1]; post-synaptic, s.c.) | ED50 ([1]; sc, read-out: ID50 (reversal of the effects of 8-OH-DPAT, hypothermia)) | duration of the ultrasonic vocalisations ([2]; 0.04 mg/kg s.c., n = 6) | duration of the ultrasonic vocalisations ([2]; 0.16 mg/kg s.c., n = 3, ** p < 0.01 vs carrier (Dunnett test)) | duration of the ultrasonic vocalisations ([2]; 2.5 mg/kg s.c., n = 5, ** p < 0.01 vs carrier (Dunnett test)) | effect on duration of the vocalisations (anxiolytic activity) ([2]; 0.16 and 2.5 mg/kg s.c.) | discharge frequency, percentage in relation to the basal activity (100%) ([3]; 0.25 μg/kg i.v., n = 3, mean ± standard error of the mean) | discharge frequency, percentage in relation to the basal activity (100%) ([3]; 0.5 μg/kg i.v., n = 3, mean ± standard error of the mean) | discharge frequency, percentage in relation to the basal activity (100%) ([3]; 1 μg/kg i.v., n = 3, mean ± standard error of the mean) | ED50 ([3]; intravenous, rat dorsal raphe, read-out: ID50 (decrease of discharge frequency)) | character at pre-synaptic 5-HT1A receptors ([3]; pre-synaptic, rat, i.v.) | discharge frequency, percentage in relation to the basal activity (100%), after WAY 100,635 ([3]; reversal by WAY 100,635 31 μg/kg after cumulative Example 6 doses, n = 3, mean ± standard error of the mean) | pKi (human 5-HT1A receptor) | effect on body temperature [4]
O[C@@H]1c2ccccc2C[C@H]1N1CCN(c2cccc3c2OCCO3)CC1 (relative stereo) [Example 6, Trans-2-[4-(2,3-dihydro[1,4]benzodioxin-5-yl)piperazin-1-yl]indan-1-ol] | 6.03 | behaves like a post-synaptic 5-HT1A serotoninergic antagonist | 1.3 mg/kg | 170 ± 62 s | 28 ± 14 s | 8 ± 8 s | brings about a reduction in the duration of the vocalisations, indicating its anxiolytic activity | 73.84% | 52.23% | 36.16% | 0.00059 mg/kg | behaves like a 5-HT1A serotoninergic agonist at the pre-synaptic level | 140.48% | 8.76 | 
CCCN(CCC)C1CCc2cccc(O)c2C1 (stereo not drawn) [Example 8-OH-DPAT] |  |  |  |  |  |  |  |  |  |  |  |  |  |  | brings about a decrease in body temperature in a dose-dependent manner
